Experimental findings from US20070148184A1, “Survivin-derived peptides and use thereof” (priority 2003, published 2007) are described below.

The target of one test is HLA-A11 (Homo sapiens, UniProt P04439, A114D/D185E/E176A/F33Y/L180Q/S129P/T187R). The test is described as follows: Assembly assay, HLA-A11. The format is binding. As to the method: (§1) The binding affinity of synthetic peptides (Invitrogen, Carlsbad, Calif., USA) to HLA-A1, -A2, A3, or -A11 molecules metabolically labeled with [^35S]-methionine was measured in the assembly assay, as described previously (12). The assay is based on peptide-mediated stabilization of empty HLA molecules released upon cell lysis, from the TAP-deficient cell lines. Stably folded HLA-molecules were immune-precipitated using the HLA class I-specific, conformation-dependent mAb W6/32, and separated by isoelectric focusing (IEF) gel electrophoresis. MHC heavy chain bands were quantified using the ImageGauge Phosphorimager program (FUJI photo film Co., Carrollton, Tex., USA). The intensity of the band is proportional to the amount of peptide-bound class I MHC complex recovered during the assay. Subsequently, the extent of stabilization of the HLA-molecule is directly related to the binding affinity of the added peptide. The peptide concentration used to analyze the recovery of the HLA-molecules was 40, 4, 0.4, 0.04 μM for HLA-A1 and HLA-A11, and 100, 10, 1, 0.1, 0.01 μM for HLA-A2 and HLA-A3. The C50 value was subsequently calculated for each peptide as the peptide concentration sufficient for half maximal stabilization.

The test system of test [1] is peptide epitope-specific interferon-γ releasing effector cells. The test is described as follows: IFN-γ ELISPOT, Example 4 (PBL or TIL from cancer patients). The format is cell-based, human. Here is the method: To extend the sensitivity of the ELISPOT assay, PBL were stimulated once in vitro prior to analysis. At day 0, PBL or crushed lymph nodes were thawed and plated as 2×10^6 cells in 2 ml/well in 24-well plates (Nunc, Roskilde, Denmark) in x-vivo medium (Bio Whittaker, Walkersville, Md.), […] heat-inactivated human serum, and 2 mM of L-glutamine in the presence of 10 μM of peptide. Two days later 20 IU/ml recombinant interleukin-2 (IL-2) (Chiron, Ratingen, Germany) was added to the cultures. The cultured cells were tested for reactivity in the ELISPOT on day 10.
The ELISPOT assay was used to quantify peptide epitope-specific interferon-γ releasing effector cells as previously described (16). Briefly, nitrocellulose bottomed 96-well plates (MultiScreen MAIP N45, Millipore, Hedehusene, Denmark) were coated with anti-IFN-γ antibody (1-D1K, Mabtech, Nacka, Sweden). The wells were washed, blocked by X-vivo medium, and the cells were added in duplicates at different cell concentrations. The peptides were then added to each well and the plates were incubated overnight. The following day, media was discarded and the wells were washed prior to addition of biotinylated secondary antibody (7-B6-1-Biotin, Mabtech). The plates were incubated for 2 hours, washed, and avidin-alkaline phosphatase conjugate (Calbiochem, Life Technologies, Inc. San Diego, Calif., USA) was added to each well. The plates were incubated at room temperature for one hour, washed, and the enzyme substrate NBT/BCIP (DakoCytomation Norden A/S, Glostrup, Denmark) was added to each well and incubated at RT for 5-10 min. Upon the emergence of dark purple spots, the reaction was terminated by washing with tap-water. The spots were counted using the ImmunoSpot® Series 2.0 Analyzer (CTL Analyzers, LLC, Cleveland, US) and the peptide specific CTL frequency could be calculated from the numbers of spot-forming cells. All assays were performed in duplicates for each peptide antigen.

Another test concerns the target HLA-A3 (Homo sapiens, UniProt P04439). The test is described as follows: Assembly assay, HLA-A3. Particulars: for EC50: Table 4, HLA-A3, read-out: C50. The format is binding. Here is the method:
as §1

Another test has as its target T1, HLA-A1 (Homo sapiens, UniProt P04439, A114D/A174V/A182V/D101N/D185E/E176A/E190D/L180R/Q94H/R68K/S129P/T187R/V100A/V91M/W191G).
T1 construct: empty HLA molecules released upon cell lysis, from the TAP-deficient cell lines; endogenous in cells; host or cells: BM36.1 (TAP-defective cell line expressing HLA-A*0101 and HLA-B*3501)
The test is described as follows: Assembly assay, HLA-A1. The format is binding. Particulars: for EC50: Table 4, HLA-A1, read-out: C50. Here is the method: as §1

A further test deals with HLA-B7 (Homo sapiens, UniProt P01889). Briefly: Assembly assay, HLA-B7. The format is binding. Here is the method:
as §1
Binding of survivin derived peptides to HLA-B7 The amino acid sequence of the survivin protein was screened for peptides of nine to ten amino acids, with anchor residues according to the peptide binding motif of HLA-B7. Five peptides were selected and analyzed for their ability to stabilize HLA-B7 in the assembly assay. C50 values were estimated for each peptide as the peptide concentration needed for half maximal stabilization of HLA-B7 (table 4).

Setting [2] is: HLA-A3, nine samples from melanoma patients (five PBL and four TIL).

Like-named read-outs stand apart in the source and are kept apart here. No end group written: not given here.

Consider `CC[C@H](C)[C@H](NC(=O)[C@@H](N)CCCCN)C(=O)N[C@@H](C)C(=O)N[C@@H](CCCCN)C(=O)N[C@@H](CCC(=O)O)C(=O)N[C@H](C(=O)N[C@@H](CC(N)=O)C(=O)N[C@@H](CC(N)=O)C(=O)N[C@@H](CCCCN)C(=O)N[C@@H](CCCCN)C(=O)O)[C@@H](C)O` [Sur 112-121], for which the “binding to HLA-A11, in words” value at HLA-A11 is reported as “bound weakly”. Moreover, the EC50 on HLA-A11 (Table 4, HLA-A11, read-out: C50) is > 100 µM; on HLA-A3 it was 1 µM. Besides, in test [1] (setting [2]), the ELISPOT response entry is “no immune responses”. Also, on HLA-A3, the “binding to HLA-A3, in words” value is reported as “high affinity”.
Take `CC(C)C[C@H](NC(=O)[C@H](CCC(=O)O)NC(=O)[C@H](CCC(=O)O)NC(=O)[C@@H](N)Cc1ccccc1)C(=O)N[C@H](C(=O)N[C@@H](CC(C)C)C(=O)NCC(=O)N[C@@H](CCC(=O)O)C(=O)N[C@@H](Cc1ccccc1)C(=O)O)[C@@H](C)O` [Sur93-101]: in test [1] (HLA-A1, ten melanoma patients, data not shown), the ELISPOT response result is “no peptide-specific responses were detected”. Further, on HLA-A1, the “binding to HLA-A1, in words” value was “low binding affinity” and the EC50 is > 100 µM.
With `CC(C)C[C@H](NC(=O)[C@@H](N)CC(C)C)C(=O)N[C@@H](CCC(N)=O)C(=O)N[C@@H](CS)C(=O)N[C@@H](Cc1ccccc1)C(=O)N[C@@H](Cc1ccccc1)C(=O)N[C@@H](CS)C(=O)N[C@@H](Cc1ccccc1)C(=O)N[C@@H](CCCCN)C(=O)O` [Sur54L2], the ELISPOT response entry in test [1] (setting [2]) was “No responses were detected”. In addition, the “binding to HLA-A3, in words” value at HLA-A3 is listed as “high affinity”.
Consider LPPAWQPFL [Sur6-14], for which the EC50 is > 100 µM at HLA-B7 (Example 4, read-out: C50 (half maximal stabilization of HLA-B7)) and > 100 µM on HLA-B7 (Table 4, HLA-B7, read-out: C50).
With `CC(C)C[C@H](NC(=O)[C@H](CCC(=O)O)NC(=O)[C@H](CCC(=O)O)NC(=O)[C@@H](NC(=O)[C@@H](N)CCC(N)=O)[C@@H](C)O)C(=O)N[C@H](C(=O)N[C@@H](CC(C)C)C(=O)NCC(=O)N[C@@H](CCC(=O)O)C(=O)N[C@@H](Cc1ccccc1)C(=O)O)[C@@H](C)O` [Sur92T2], at HLA-A1, the EC50 was found to be 2 µM.
As to ENEPDLAQCF [Sur49-58], at HLA-A1, the “binding to HLA-A1, in words” value was “non-binding”.
`CC(C)C[C@H](NC(=O)[C@H](CCC(=O)O)NC(=O)[C@H](CCC(=O)O)NC(=O)[C@H](Cc1ccccc1)NC(=O)[C@@H](N)CCC(N)=O)C(=O)N[C@H](C(=O)N[C@@H](CC(C)C)C(=O)NCC(=O)N[C@@H](CCC(=O)O)C(=O)N[C@@H](Cc1ccccc1)C(=O)O)[C@@H](C)O` [Sur92-101]: in test [1] (HLA-A1, Mel.A1-2), the ELISPOT response result was “showed responses”. The ELISPOT response result in test [1] (HLA-A1, Mel.A1-3, PBL) was “T-cell response”. Besides, on HLA-A1, the “binding to HLA-A1, in words” value is on record as “bound with almost similar high affinity as a known positive control epitope” and the EC50 was determined as 2 µM.
At HLA-B7, RPPIFIRRL [C7, reference compound] showed an EC50 of 0.5 µM.
As to `CC(C)C[C@H](NC(=O)[C@H](Cc1ccccc1)NC(=O)[C@H](CCC(=O)O)NC(=O)CNC(=O)[C@H](CC(C)C)NC(=O)[C@@H](NC(=O)[C@H](CC(C)C)NC(=O)[C@@H](N)CCC(=O)O)[C@@H](C)O)C(=O)N[C@@H](CCCCN)C(=O)O` [Sur 95-103], the ELISPOT response result in test [1] (setting [2]) is “no immune responses”. For the same molecule, at HLA-A3, the “binding to HLA-A3, in words” value is given as “bound weakly” and the EC50 is > 100 µM.
In the case of `CC(C)C[C@H](NC(=O)[C@H](CCC(=O)O)NC(=O)[C@@H](NC(=O)[C@@H](N)Cc1ccccc1)[C@@H](C)O)C(=O)N[C@H](C(=O)N[C@@H](CC(C)C)C(=O)NCC(=O)N[C@@H](CCC(=O)O)C(=O)N[C@@H](Cc1ccccc1)C(=O)O)[C@@H](C)O` [Sur93T2], the ELISPOT response result in test [1] (HLA-A1, Mel.A1-2) is “showed responses”; in test [1] (HLA-A1, Mel.A1-3, PBL) it was “T-cell response”; in test [1] (HLA-A1, Mel.A1-4/PBL), “responses were observed”. Also, the “binding to HLA-A1, in words” value on HLA-A1 was “bound with high affinity”. Further, at HLA-A1, the EC50 came to 1 µM.
In the case of `CC(C)C[C@H](NC(=O)[C@H](CCC(=O)O)NC(=O)[C@H](CO)NC(=O)[C@@H](N)Cc1ccccc1)C(=O)N[C@H](C(=O)N[C@@H](CC(C)C)C(=O)NCC(=O)N[C@@H](CCC(=O)O)C(=O)N[C@@H](Cc1ccccc1)C(=O)O)[C@@H](C)O` [Sur93S2], the EC50 at HLA-A1 turned out to be 30 µM.
Still for that read-out and setting: the result for `CC(C)C[C@H](NC(=O)[C@H](CCC(=O)O)NC(=O)[C@H](CCC(=O)O)NC(=O)[C@H](CO)NC(=O)[C@@H](N)CCC(N)=O)C(=O)N[C@H](C(=O)N[C@@H](CC(C)C)C(=O)NCC(=O)N[C@@H](CCC(=O)O)C(=O)N[C@@H](Cc1ccccc1)C(=O)O)[C@@H](C)O` [Sur92S2] reads 100 µM.
As for `CC[C@H](C)[C@H](NC(=O)[C@@H](N)CCCNC(=N)N)C(=O)N[C@@H](CO)C(=O)N[C@H](C(=O)N[C@@H](Cc1ccccc1)C(=O)N[C@@H](CCCCN)C(=O)N[C@@H](CC(N)=O)C(=O)N[C@@H](Cc1c[nH]c2ccccc12)C(=O)N1CCC[C@H]1C(=O)N[C@@H](CCCCN)C(=O)O)[C@@H](C)O` [Sur18K10], the ELISPOT response result in test [1] (setting [2]) is “CTL reactivity was detected”. In addition, the responding patients result in test [1] (HLA-A3, twenty-seven melanoma patients analyzed) is listed as “six”. At HLA-A3, the “binding to HLA-A3, in words” value is listed as “high affinity” and the EC50 was determined as 0.02 µM.
In the case of `CC(C)C[C@H](NC(=O)[C@@H](N)[C@@H](C)O)C(=O)N1CCC[C@H]1C(=O)N1CCC[C@H]1C(=O)N[C@@H](C)C(=O)N[C@@H](Cc1c[nH]c2ccccc12)C(=O)N[C@@H](CCC(N)=O)C(=O)N1CCC[C@H]1C(=O)N[C@@H](CCCCN)C(=O)O` [Sur5K9], in test [1] (setting [2]), the ELISPOT response result is “No responses were detected”. Moreover, on HLA-A3, the “binding to HLA-A3, in words” value is “high affinity” and the EC50 amounted to 2 µM.
Consider EPDLAQCFF [Sur51-59], for which, on HLA-B7 (Example 4), the “C50 (half maximal stabilization of HLA-B7)” value is on record as “did not bind”. The EC50 on HLA-B7 (Table 4, HLA-B7, read-out: C50) is > 100 µM.
On to `CC(C)C[C@H](NC(=O)[C@H](CC(=O)O)NC(=O)[C@@H]1CCCN1C(=O)[C@H](CCC(=O)O)NC(=O)[C@H](CC(N)=O)NC(=O)[C@H](CCC(=O)O)NC(=O)[C@@H](NC(=O)[C@@H]1CCCN1)[C@@H](C)O)C(=O)N[C@@H](C)C(=O)N[C@@H](Cc1ccc(O)cc1)C(=O)O` [Sur47Y10], for which the EC50 at HLA-A1 was 0.4 µM.
For the molecule `CC(C)C[C@H](N)C(=O)N[C@@H](C)C(=O)N[C@@H](CCC(N)=O)C(=O)N[C@@H](CS)C(=O)N[C@@H](Cc1ccccc1)C(=O)N[C@@H](Cc1ccccc1)C(=O)N[C@@H](CS)C(=O)N[C@@H](Cc1ccccc1)C(=O)N[C@@H](CCCCN)C(=O)O` [Sur 54-62], the “binding to HLA-A11, in words” value at HLA-A11 is recorded as “high affinity”.
Consider QPRAPIRPI [C6, reference compound], for which, on HLA-B7, the EC50 amounted to 0.1 µM.
On to `CC[C@H](C)[C@H](NC(=O)[C@H](Cc1ccccc1)NC(=O)CNC(=O)[C@H](C)NC(=O)[C@H](CCC(=O)O)NC(=O)[C@H](C)NC(=O)[C@@H](N)CCSC)C(=O)N[C@@H](Cc1c[nH]cn1)C(=O)N[C@@H](Cc1ccc(O)cc1)C(=O)O` [Sur38Y9], for which, at HLA-A1, the EC50 worked out at 0.8 µM.
As to CPTENEPDL [Sur46-54], at HLA-B7 (Example 4), the “C50 (half maximal stabilization of HLA-B7)” value is recorded as “did not bind”. Besides, the EC50 at HLA-B7 (Table 4, HLA-B7, read-out: C50) was > 100 µM.
